Data from ChEMBL document CHEMBL4152357, “Efflux pump inhibition by 11H-pyrido[2,1-b]quinazolin-11-one analogues in mycobacteria” (Bioorg Med Chem, 2018).
In brackets after ≈: the same amount, converted by molar mass. Activity calls are given as the source filed them. The calls are words filed in the database; no cut-off is given here.

Experiments:
[1] = biological target: T1, Multidrug efflux pump LfrA (Mycobacterium smegmatis (strain ATCC 700084 / mc(2)155)) (UniProt A0R5K5); assay: Inhibition of LfrA in Mycobacterium smegmatis MC2 155 ATCC 700084 assessed as decrease in norfloxacin MIC at 12.5 ug/ml after 72 hrs by MTT assay relative to control; settings: Mycolicibacterium smegmatis MC2 155
T1 sequence (whole entry): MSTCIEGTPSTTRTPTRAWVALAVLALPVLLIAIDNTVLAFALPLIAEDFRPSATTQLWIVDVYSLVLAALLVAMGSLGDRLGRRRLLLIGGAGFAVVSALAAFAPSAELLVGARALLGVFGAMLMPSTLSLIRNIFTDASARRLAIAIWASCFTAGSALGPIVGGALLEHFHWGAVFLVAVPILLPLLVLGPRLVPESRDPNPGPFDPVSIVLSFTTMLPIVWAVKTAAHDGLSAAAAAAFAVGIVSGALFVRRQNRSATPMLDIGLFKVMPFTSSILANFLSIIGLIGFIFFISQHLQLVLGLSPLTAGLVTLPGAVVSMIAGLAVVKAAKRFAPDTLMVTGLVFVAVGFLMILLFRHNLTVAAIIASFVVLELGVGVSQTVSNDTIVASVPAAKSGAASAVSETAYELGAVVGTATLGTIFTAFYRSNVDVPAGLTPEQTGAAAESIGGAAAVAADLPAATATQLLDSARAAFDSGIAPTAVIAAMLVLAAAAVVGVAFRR

[2] = tested on: Mycolicibacterium smegmatis; assay: Growth inhibition of Mycobacterium smegmatis MC2 155 ATCC 700084 after 72 hrs by MTT assay; assay type: organism-based
[3] = biological target: T1, Multidrug efflux pump LfrA (Mycobacterium smegmatis (strain ATCC 700084 / mc(2)155)); assay: Inhibition of LfrA in Mycobacterium smegmatis MC2 155 ATCC 700084 assessed as decrease in EtBr MIC at 100 ug/ml after 72 hrs by MTT assay relative to control; settings: Mycolicibacterium smegmatis MC2 155
[4] = biological target: T1, Multidrug efflux pump LfrA (Mycobacterium smegmatis (strain ATCC 700084 / mc(2)155)); assay: Inhibition of LfrA in Mycobacterium smegmatis MC2 155 ATCC 700084 assessed as decrease in norfloxacin MIC at 25 ug/ml after 72 hrs by MTT assay relative to control; settings: Mycolicibacterium smegmatis MC2 155
[5] = biological target: T1, Multidrug efflux pump LfrA (Mycobacterium smegmatis (strain ATCC 700084 / mc(2)155)); assay: Inhibition of LfrA in Mycobacterium smegmatis MC2 155 ATCC 700084 assessed as increase in EtBr accumulation at 50 ug/ml measured every 5 mins for 35 mins by fluorometric analysis; settings: Mycolicibacterium smegmatis MC2 155
CC-1 = assay: Cytotoxicity against rat CC1 cells assessed as decrease in cell survival at 200 ug/ml after 24 hrs by Alamar blue reduction assay relative to control; assay type: cell-based; settings: cc-1, 24 h
[6] = biological target: T1, Multidrug efflux pump LfrA (Mycobacterium smegmatis (strain ATCC 700084 / mc(2)155)); assay: Inhibition of LfrA in Mycobacterium smegmatis MC2 155 ATCC 700084 assessed as potentiation of EtBr-induced bactericidal activity at 100 ug/ml after 48 hrs; settings: Mycolicibacterium smegmatis MC2 155
[7] = Cytotoxicity against rat CC1 cells assessed as cell survival at 50 ug/ml after 24 hrs by Alamar blue reduction assay relative to control; assay type: cell-based, CC-1; settings: read-out: Survival
[8] = biological target: T1, Multidrug efflux pump LfrA (Mycobacterium smegmatis (strain ATCC 700084 / mc(2)155)); assay: Inhibition of LfrA in Mycobacterium smegmatis MC2 155 ATCC 700084 assessed as decrease in norfloxacin MIC at 50 ug/ml after 72 hrs by MTT assay relative to control; settings: Mycolicibacterium smegmatis MC2 155
[9] = biological target: T1, Multidrug efflux pump LfrA (Mycobacterium smegmatis (strain ATCC 700084 / mc(2)155)); assay: Inhibition of LfrA in Mycobacterium smegmatis MC2 155 ATCC 700084 assessed as increase in EtBr accumulation at 25 ug/ml measured every 5 mins for 35 mins by fluorometric analysis; settings: Mycolicibacterium smegmatis MC2 155
[10] = Cytotoxicity against rat CC1 cells assessed as cell survival at 100 ug/ml after 24 hrs by Alamar blue reduction assay relative to control; assay type: cell-based, CC-1; settings: read-out: Survival
[11] = biological target: T1, Multidrug efflux pump LfrA (Mycobacterium smegmatis (strain ATCC 700084 / mc(2)155)); assay: Inhibition of LfrA in Mycobacterium smegmatis MC2 155 ATCC 700084 assessed as decrease in EtBr MIC at 3.125 ug/ml after 72 hrs by MTT assay relative to control; settings: Mycolicibacterium smegmatis MC2 155
[12] = biological target: T1, Multidrug efflux pump LfrA (Mycobacterium smegmatis (strain ATCC 700084 / mc(2)155)); assay: Inhibition of LfrA in Mycobacterium smegmatis MC2 155 ATCC 700084 assessed as decrease in EtBr MIC at 0.78 ug/ml after 72 hrs by MTT assay relative to control; settings: Mycolicibacterium smegmatis MC2 155
[13] = biological target: T1, Multidrug efflux pump LfrA (Mycobacterium smegmatis (strain ATCC 700084 / mc(2)155)); assay: Inhibition of LfrA in Mycobacterium smegmatis MC2 155 ATCC 700084 assessed as potentiation of norfloxacin-induced bactericidal activity at 100 ug/ml after 48 hrs; settings: Mycolicibacterium smegmatis MC2 155
[14] = biological target: T1, Multidrug efflux pump LfrA (Mycobacterium smegmatis (strain ATCC 700084 / mc(2)155)); assay: Inhibition of LfrA in Mycobacterium smegmatis MC2 155 ATCC 700084 assessed as decrease in norfloxacin MIC at 100 ug/ml after 72 hrs by MTT assay relative to control; settings: Mycolicibacterium smegmatis MC2 155
[15] = biological target: T1, Multidrug efflux pump LfrA (Mycobacterium smegmatis (strain ATCC 700084 / mc(2)155)); assay: Inhibition of LfrA in Mycobacterium smegmatis MC2 155 ATCC 700084 assessed as potentiation of EtBr-induced bactericidal activity at 100 ug/ml after 24 hrs; settings: Mycolicibacterium smegmatis MC2 155
[16] = biological target: T1, Multidrug efflux pump LfrA (Mycobacterium smegmatis (strain ATCC 700084 / mc(2)155)); assay: Inhibition of LfrA in Mycobacterium smegmatis MC2 155 ATCC 700084 assessed as increase in norfloxacin accumulation at 25 ug/ml measured every 5 mins for 35 mins by fluorometric analysis; settings: Mycolicibacterium smegmatis MC2 155
[17] = biological target: T1, Multidrug efflux pump LfrA (Mycobacterium smegmatis (strain ATCC 700084 / mc(2)155)); assay: Inhibition of LfrA in Mycobacterium smegmatis MC2 155 ATCC 700084 assessed as potentiation of norfloxacin-induced bactericidal activity at 25 ug/ml after 24 to 48 hrs; settings: Mycolicibacterium smegmatis MC2 155
[18] = biological target: T1, Multidrug efflux pump LfrA (Mycobacterium smegmatis (strain ATCC 700084 / mc(2)155)); assay: Inhibition of LfrA in Mycobacterium smegmatis MC2 155 ATCC 700084 assessed as increase in EtBr accumulation at 12.5 ug/ml measured every 5 mins for 35 mins by fluorometric analysis; settings: Mycolicibacterium smegmatis MC2 155
[19] = biological target: T1, Multidrug efflux pump LfrA (Mycobacterium smegmatis (strain ATCC 700084 / mc(2)155)); assay: Inhibition of LfrA in Mycobacterium smegmatis MC2 155 ATCC 700084 assessed as increase in norfloxacin accumulation at 12.5 ug/ml measured every 5 mins for 35 mins by fluorometric analysis; settings: Mycolicibacterium smegmatis MC2 155
[20] = biological target: T1, Multidrug efflux pump LfrA (Mycobacterium smegmatis (strain ATCC 700084 / mc(2)155)); assay: Inhibition of LfrA in Mycobacterium smegmatis MC2 155 ATCC 700084 assessed as decrease in norfloxacin MIC at 0.0004 ug/ml after 72 hrs by MTT assay relative to control; settings: Mycolicibacterium smegmatis MC2 155
[21] = biological target: T1, Multidrug efflux pump LfrA (Mycobacterium smegmatis (strain ATCC 700084 / mc(2)155)); assay: Inhibition of LfrA in Mycobacterium smegmatis MC2 155 ATCC 700084 assessed as decrease in EtBr MIC at 16 ug/ml after 72 hrs by MTT assay relative to control; settings: Mycolicibacterium smegmatis MC2 155

| SMILES | MIC [2] [µg/mL] | fold change (FC) [3] | fractional inhibitory concentration index (FICI) [3] | fold change (FC) [4] | fractional inhibitory concentration index (FICI) [4] | Activity [5] [FU] | Activity (CC-1) [%] | viability at 24 h, 50 ug/ml [7] [%] | inhibition [9] | viability at 24 h, 100 ug/ml [10] [%] | inhibition [15] | further results |
| --- | --- | --- | --- | --- | --- | --- | --- | --- | --- | --- | --- | --- |
| O=c1c2ccc(F)cc2nc2ccccn12 | 200 (≈ 934 µM) |  |  |  |  |  |  |  |  |  |  | fold change (FC) [1]: 2; fractional inhibitory concentration index (FICI) [1]: 0.56 |
| O=c1c2cccc(Cl)c2nc2c3ccccc3ccn12 | 200 (≈ 712 µM) | 2 | 1 | 4 | 0.37 |  |  |  |  |  |  |  |
| O=c1c2cccc(Cl)c2nc2c(Cl)cccn12 | 200 (≈ 754 µM) | 16 | 0.56 |  |  | > 355 | > 50 | 95 | Active | 92 |  | Activity (deltalog10CFU/ml) [6]: 7; fold change (FC) [8]: 4; fractional inhibitory concentration index (FICI) [8]: 0.55 |
| Cc1ccn2c(=O)c3cccc(Cl)c3nc2c1 | 200 (≈ 817 µM) |  |  | 4 | 0.37 |  |  |  |  |  |  | fold change (FC) [11]: 2; fractional inhibitory concentration index (FICI) [11]: 0.5 |
| Cc1ccn2c(=O)c3cc(Br)ccc3nc2c1 | 200 (≈ 692 µM) |  |  | 4 | 0.37 |  |  |  |  |  |  | fold change (FC) [12]: 2; fractional inhibitory concentration index (FICI) [12]: 0.3 |
| O=c1c2ccc(Cl)cc2nc2ccccn12 | 200 (≈ 867 µM) | 8 | 0.62 |  |  | 248 | > 50 | 80 | Active | 70 | Active | Activity (deltalog10CFU/ml) [13]: 4; fold change (FC) [14]: 8; fractional inhibitory concentration index (FICI) [14]: 0.62; Activity [16]: 18000 FU |
| Cc1cccn2c(=O)c3cc(Br)ccc3nc12 | 200 (≈ 692 µM) |  |  | 4 | 0.37 |  |  |  |  |  |  | fold change (FC) [12]: 2; fractional inhibitory concentration index (FICI) [12]: 0.3 |
| O=c1c2ccccc2nc2ccccn12 | 200 (≈ 1020 µM) | 8 | 0.62 | 8 | 0.25 | < 150 | > 50 | 86 | inactive | 70 | Active | inhibition [6]: Active; Activity [16]: 2000 FU; Activity (deltalog10CFU/ml) [17]: > 3 |
| N#CC(C#N)=NNc1cccc(Cl)c1 [CARBONYL CYANIDE M-CHLOROPHENYLHYDRAZONE] | 25 (≈ 122 µM) |  |  |  |  |  |  |  |  |  |  | inhibition [18]: Active; Activity [19]: 1000 FU; fold change (FC) [20]: 32; fractional inhibitory concentration index (FICI) [20]: 0.03; fold change (FC) [21]: 2; fractional inhibitory concentration index (FICI) [21]: 0.5 |
| Cc1cccn2c(=O)c3ccccc3nc12 | 200 (≈ 951 µM) | 8 | 0.62 |  |  | 250 | > 50 | 45 | Active | 81 | Active | fold change (FC) [1]: 4; fractional inhibitory concentration index (FICI) [1]: 0.3 |
| O=c1c2ccccc2nc2c(F)cc(F)cn12 | 200 (≈ 861 µM) | 16 | 0.5 |  |  | > 255 | > 50 | 80 | Active | 52 | Active | fold change (FC) [1]: 4; fractional inhibitory concentration index (FICI) [1]: 0.3 |
| Cc1ccn2c(=O)c3cccc(F)c3nc2c1 | 200 (≈ 876 µM) | 8 | 0.62 |  |  | > 150 | > 50 | 96 | Active | 43 | Active | fold change (FC) [1]: 4; fractional inhibitory concentration index (FICI) [1]: 0.3 |
| Cc1cccn2c(=O)c3ccc(Br)cc3nc12 | 200 (≈ 692 µM) |  |  | 4 | 0.37 |  |  |  |  |  |  |  |
| COc1ccc(CCN(C)CCCC(C#N)(c2ccc(OC)c(OC)c2)C(C)C)cc1OC (centres undefined) [VERAPAMIL] | 300 (≈ 660 µM) |  |  |  |  |  |  |  |  |  |  |  |
| O=c1c2cccc(Cl)c2nc2ccccn12 | 200 (≈ 867 µM) |  |  | 8 | 0.25 |  | > 50 | 100 |  | 99 |  | Activity [16]: 3000 FU; Activity (deltalog10CFU/ml) [17]: > 3 |
| O=c1c2cccc(Cl)c2nc2ccc(F)cn12 | 200 (≈ 804 µM) | 8 | 0.62 |  |  | > 500 | > 50 | 84 | Active | 86 | Active | fold change (FC) [8]: 4; fractional inhibitory concentration index (FICI) [8]: 0.55 |
